Measurements from article PMC3701070 (PLoS ONE, 2013).
pIC50: −log10 of the molar value.

Legend:
Assay in all cases: Cell growth assay
Type in all cases: cell-based
SCLC-3 = settings: Homo sapiens, 72 h; SCLC-3, RAF WT, RAS WT, 3-day; read-out: gIC50
Method in brief: (§1)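 ATP-based CellTiter-Glo detection tracked cell number at 0 and 72 h. The inhibitory potency is expressed as gIC50.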

NCI-H322 = settings: Homo sapiens, 72 h; NCI-H322, RAF WT, RAS WT, 3-day; read-out: gIC50
Method in brief: as §1

ES-2 = settings: Homo sapiens, 72 h; ES-2, BRAF(V600E), RAS WT, 3-day; read-out: gIC50
Method in brief: as §1

J82 = settings: Homo sapiens, 72 h; J82, RAF WT, RAS WT, 3-day; read-out: gIC50
Method in brief: as §1

SK-N-DZ(note) = settings: Homo sapiens, 72 h, RAF WT, RAS WT, 3-day, read-out: gIC50
Method in brief: as §1

786-O = settings: Homo sapiens, 786-0, 72 h, RAF WT, RAS WT, 3-day, read-out: gIC50
Method in brief: as §1

CHL-1 = settings: Homo sapiens, 72 h; CHL-1, RAF WT, RAS WT, 3-day; read-out: gIC50
Method in brief: as §1

JM1 = settings: Homo sapiens, 72 h; JM1, RAF WT, RAS WT, 3-day; read-out: gIC50
Method in brief: as §1

Colo320DM = settings: Homo sapiens, COLO 320DM, 72 h, RAF WT, RAS WT, 3-day, read-out: gIC50
Method in brief: as §1

MALME-3M = settings: Homo sapiens, 72 h, BRAF(V600E), RAS WT, 3-day, read-out: gIC50
Method in brief: as §1

Kato III = settings: Homo sapiens, 72 h, RAF WT, RAS WT, 3-day, read-out: gIC50
Method in brief: as §1

A431 = settings: Homo sapiens, A-431, 72 h; A431, RAF WT, RAS WT, 3-day; read-out: gIC50
Method in brief: as §1

NCI-H358 = settings: Homo sapiens, 72 h; NCI-H358, RAF WT, RAS WT, 3-day; read-out: gIC50
Method in brief: as §1

SNU-5 = settings: Homo sapiens, 72 h; SNU-5, RAF WT, RAS WT, 3-day; read-out: gIC50
Method in brief: as §1

TK-10 = settings: Homo sapiens, 72 h; TK-10, RAF WT, RAS WT, 3-day; read-out: gIC50
Method in brief: as §1

NCI-H526 = settings: Homo sapiens, 72 h; NCI-H526, RAF WT, RAS WT, 3-day; read-out: gIC50
Method in brief: as §1

T47D = settings: Homo sapiens, 72 h, RAF WT, RAS WT, 3-day, read-out: gIC50
Method in brief: as §1

HCC-1954 = settings: Homo sapiens, HCC1954, 72 h; HCC-1954, RAF WT, RAS WT, 3-day; read-out: gIC50
Method in brief: as §1

Be(2)C = settings: Homo sapiens, 72 h, RAF WT, RAS WT, 3-day, read-out: gIC50
Method in brief: as §1

CGTHW1 = settings: Homo sapiens, CGTH-W-1, 72 h; CGTHW1, RAF WT, RAS WT, 3-day; read-out: gIC50
Method in brief: as §1

CHP-212 = settings: Homo sapiens, 72 h; CHP-212, RAF WT, NRAS(Q61K), 3-day; read-out: gIC50
Method in brief: as §1

HCC-2998 = settings: Homo sapiens, 72 h; HCC-2998, RAF WT, KRAS(A146T), 3-day; read-out: gIC50
Method in brief: as §1

Colo 205 = settings: Homo sapiens, 72 h; Colo 205, BRAF(V600E), RAS WT, 3-day; read-out: gIC50
Method in brief: as §1

NCI-H1563 = settings: Homo sapiens, 72 h; NCI-H1563, RAF WT, RAS WT, 3-day; read-out: gIC50
Method in brief: as §1

YAPC = settings: Homo sapiens, 72 h, RAF WT, RAS WT, 3-day, read-out: gIC50
Method in brief: as §1

SNU-398 = settings: Homo sapiens, 72 h; SNU-398, RAF WT, RAS WT, 3-day; read-out: gIC50
Method in brief: as §1

EFM-19 = settings: Homo sapiens, 72 h; EFM-19, RAF WT, RAS WT, 3-day; read-out: gIC50
Method in brief: as §1

SR = settings: Homo sapiens, 72 h, RAF WT, RAS WT, 3-day, read-out: gIC50
Method in brief: as §1

SH-4 = settings: Homo sapiens, 72 h; SH-4, BRAF(V600E), RAS WT, 3-day; read-out: gIC50
Method in brief: as §1

HT = settings: Homo sapiens, 72 h, RAF WT, RAS WT, 3-day, read-out: gIC50
Method in brief: as §1

SCC-15 = settings: Homo sapiens, 72 h; SCC-15, RAF WT, RAS WT, 3-day; read-out: gIC50
Method in brief: as §1

SW1463 = settings: Homo sapiens, 72 h; SW1463, RAF WT, RAS WT, 3-day; read-out: gIC50
Method in brief: as §1

NCI-H630 = settings: Homo sapiens, 72 h; NCI-H630, RAF WT, RAS WT, 3-day; read-out: gIC50
Method in brief: as §1

CESS = settings: Homo sapiens, 72 h, RAF WT, RAS WT, 3-day, read-out: gIC50
Method in brief: as §1

Q: CC(C)(C)c1nc(-c2cccc(NS(=O)(=O)c3c(F)cccc3F)c2F)c(-c2ccnc(N)n2)s1 [dabrafenib] was tested. Which pIC50 (SCLC-3) did it give?
A: < 5.00

Q: And the pIC50 (NCI-H322)?
A: < 5.00

Q: And the pIC50 (ES-2)?
A: 7.28

Q: What about the pIC50 (J82) of the same compound?
A: < 5.00

Q: What about the pIC50 (SK-N-DZ(note)) of the same compound?
A: < 5.00

Q: What about the pIC50 (786-O) of the same compound?
A: < 5.00

Q: And the pIC50 (CHL-1)?
A: < 5.00

Q: And the pIC50 (JM1)?
A: < 5.00

Q: And the pIC50 (Colo320DM)?
A: < 5.00

Q: And the pIC50 (MALME-3M)?
A: 9.00

Q: What about the pIC50 (Kato III) of the same compound?
A: < 5.00

Q: What about the pIC50 (A431) of the same compound?
A: < 5.00

Q: What about the pIC50 (NCI-H358) of the same compound?
A: < 5.00

Q: And the pIC50 (SNU-5)?
A: < 5.00

Q: What about the pIC50 (TK-10) of the same compound?
A: < 5.00

Q: And the pIC50 (NCI-H526)?
A: < 5.00

Q: What about the pIC50 (T47D) of the same compound?
A: < 5.00

Q: What about the pIC50 (HCC-1954) of the same compound?
A: < 5.00

Q: And the pIC50 (Be(2)C)?
A: < 5.00

Q: What about the pIC50 (CGTHW1) of the same compound?
A: < 5.00

Q: What about the pIC50 (CHP-212) of the same compound?
A: < 5.00

Q: What about the pIC50 (HCC-2998) of the same compound?
A: < 5.00

Q: What about the pIC50 (Colo 205) of the same compound?
A: 8.15

Q: And the pIC50 (NCI-H1563)?
A: < 5.00

Q: And the pIC50 (YAPC)?
A: < 5.00

Q: And the pIC50 (SNU-398)?
A: < 5.00

Q: And the pIC50 (EFM-19)?
A: < 5.00

Q: And the pIC50 (SR)?
A: < 5.00

Q: What about the pIC50 (SH-4) of the same compound?
A: 8.10

Q: What about the pIC50 (HT) of the same compound?
A: < 5.00

Q: What about the pIC50 (SCC-15) of the same compound?
A: < 5.00

Q: And the pIC50 (SW1463)?
A: < 5.00

Q: What about the pIC50 (NCI-H630) of the same compound?
A: < 5.00

Q: What about the pIC50 (CESS) of the same compound?
A: 6.30
